In patent US20220386606A1, “SPECIFICALLY SUBSTITUTED 3-PHENYL-5-SPIROCYCLOPENTYL-3-PYRROLIN-2-ONES AND THEIR USE AS HERBICIDES” (Bayer Aktiengesellschaft, priority 2019, published 2022):

Columns and labels:
[1] = test system: ECHCG; experiment: Post-emergence herbicidal action against ECHCG; assay type: in vivo, Echinochloa crus-galli; conditions: 80 g/ha, visual assessment about 3 weeks after treatment vs untreated controls
Method: (§1) Seeds of monocotyledonous and dicotyledonous weed and crop plants are laid out in sandy loam soil in wood-fiber pots, covered with soil and cultivated in a greenhouse under good growth conditions. 2 to 3 weeks after sowing, the test plants are treated at the one-leaf stage. The compounds of the invention, formulated in the form of wettable powders (WP) or as emulsion concentrates (EC), are then sprayed onto the green parts of the plants as aqueous suspension or emulsion at a water application rate equating to 600 to 800 l/ha with addition of 0.2% wetting agent. After the test plants have been left to stand in the greenhouse under optimal growth conditions for about 3 weeks, the action of the preparations is assessed visually in comparison to untreated controls (herbicidal action in percent (%): 100% activity=the plants have died, 0% activity=like control plants).

[2] = test system: SETVI; experiment: Post-emergence herbicidal action against SETVI; assay type: in vivo, Setaria viridis; conditions: 80 g/ha, visual assessment about 3 weeks after treatment vs untreated controls
Method: as §1

[3] = test system: ECHCG; experiment: Pre-emergence herbicidal action against ECHCG; assay type: in vivo, Echinochloa crus-galli; conditions: 320 g/ha, scored visually after 3 weeks vs untreated controls
Source text: (§2) Seeds of monocotyledonous and dicotyledonous weed plants and crop plants are laid out in sandy loam soil in wood-fiber pots and covered with soil. The compounds of the invention, formulated in the form of wettable powders (WP) or as emulsion concentrates (EC), are then applied to the surface of the covering soil as aqueous suspension or emulsion at a water application rate equating to 600 to 800 L/ha with addition of 0.2% wetting agent.
(§3) After the treatment, the pots are placed in a greenhouse and kept under good growth conditions for the trial plants. The damage to the test plants is scored visually after a test period of 3 weeks by comparison with untreated controls (herbicidal activity in percent (%): 100% activity=the plants have died, 0% activity=like control plants).

[4] = test system: DIGSA; experiment: Pre-emergence herbicidal action against DIGSA; assay type: in vivo, Digitaria sanguinalis; conditions: 320 g/ha, scored visually after 3 weeks vs untreated controls
Source text: as §2, §3

[5] = test system: ALOMY; experiment: Pre-emergence herbicidal action against ALOMY; assay type: in vivo, Alopecurus myosuroides; conditions: 320 g/ha, scored visually after 3 weeks vs untreated controls
Source text: as §2, §3

[6] = test system: AVEFA; experiment: Pre-emergence herbicidal action against AVEFA; assay type: in vivo, Avena fatua; conditions: 320 g/ha, scored visually after 3 weeks vs untreated controls
Source text: as §2, §3

[7] = test system: LOLRI; experiment: Pre-emergence herbicidal action against LOLRI (Table 8, titled post-emergence at 320 g/ha); assay type: in vivo, Lolium rigidum; conditions: table stands in the pre-emergence section
Source text: as §2, §3

[8] = test system: VIOTR; experiment: Pre-emergence herbicidal action against VIOTR; assay type: in vivo, Viola tricolor; conditions: 320 g/ha
Source text: as §2, §3

[9] = test system: LOLRI; experiment: Post-emergence herbicidal action against LOLRI; assay type: in vivo, Lolium rigidum; conditions: 80 g/ha, visual assessment about 3 weeks after treatment vs untreated controls
Method: as §1

[10] = test system: DIGSA; experiment: Post-emergence herbicidal action against DIGSA; assay type: in vivo, Digitaria sanguinalis; conditions: 80 g/ha, visual assessment about 3 weeks after treatment vs untreated controls
Method: as §1

[11] = test system: SETVI; experiment: Pre-emergence herbicidal action against SETVI; assay type: in vivo, Setaria viridis; conditions: 320 g/ha, scored visually after 3 weeks vs untreated controls
Source text: as §2, §3

[12] = test system: ALOMY; experiment: Post-emergence herbicidal action against ALOMY; assay type: in vivo, Alopecurus myosuroides; conditions: 80 g/ha, visual assessment after about 3 weeks
Method: as §1

[13] = test system: AVEFA; experiment: Post-emergence herbicidal action against AVEFA; assay type: in vivo, Avena fatua; conditions: 80 g/ha, visual assessment after about 3 weeks
Method: as §1

[14] = test system: AMARE; experiment: Pre-emergence herbicidal action against AMARE; assay type: in vivo, Amaranthus retroflexus; conditions: 320 g/ha
Source text: as §2, §3

| Compound | Post-emergence action against ECHCG in % [1] [%] | Post-emergence action against SETVI in % [2] [%] | Pre-emergence action against ECHCG in % [3] [%] | Pre-emergence action against DIGSA in % [4] [%] | Pre-emergence action against ALOMY in % [5] [%] | Pre-emergence action against AVEFA in % [6] [%] | Pre-emergence herbicidal action against LOLRI in % [7] [%] | Pre-emergence action against VIOTR in % [8] [%] | Post-emergence action against LOLRI in % [9] [%] | Post-emergence action against DIGSA in % [10] [%] | Pre-emergence action against SETVI in % [11] [%] | Post-emergence action against ALOMY in % [12] [%] | Post-emergence action against AVEFA in % [13] [%] | Pre-emergence action against AMARE in % [14] [%] |
| --- | --- | --- | --- | --- | --- | --- | --- | --- | --- | --- | --- | --- | --- | --- |
| CC#Cc1cc(C)c(C2=C(O)C3(CCC(COCC)C3)NC2=O)c(Br)c1 (centres unmarked) [Example I-20] | 100 | 100 | 100 | 100 | 100 | 100 | 100 | 100 | 100 | 90 | 100 | 100 | – | – |
| CC#Cc1cc(C)c(C2=C(O)C3(CCC(COC)C3)NC2=O)c(OC)c1 (centres unmarked) [Example I-33] | 100 | 100 | – | 100 | 100 | 80 | 100 | 100 | 100 | 100 | 100 | 100 | 100 | – |
| C=CCOCC1CCC2(C1)NC(=O)C(c1c(C)cc(C#CC)cc1OC)=C2O (centres unmarked) [Example I-45] | 100 | 100 | 100 | 100 | 80 | – | 100 | 80 | – | 90 | 100 | 90 | 80 | – |
| C=CCOCC1CCC2(C1)NC(=O)C(c1c(F)cc(C#CC)cc1OC)=C2O (centres unmarked) [Example I-55] | 100 | 100 | 100 | 100 | 100 | – | 100 | – | – | – | 100 | 100 | 90 | 80 |
| C#CCOCC1CCC2(C1)NC(=O)C(c1c(C)cc(C#CC)cc1OC)=C2O (centres unmarked) [Example I-76] | 100 | 100 | 100 | 100 | 100 | – | 100 | 90 | 90 | 90 | 100 | 90 | 90 | – |
| CC#Cc1cc(Br)c(C2=C(OC(=O)C(C)C)C3(CCC(COCC)C3)NC2=O)c(CC)c1 (centres unmarked) [Example P-43] | – | – | – | – | – | – | – | 100 | – | – | – | – | – | – |
| CC#Cc1cc(C)c(C2=C(OC(=O)C(C)C)C3(CCC(COCC)C3)NC2=O)c(F)c1 (centres unmarked) [Example P-59] | 100 | 100 | 100 | 100 | 100 | 100 | 100 | 100 | 100 | 100 | 100 | 100 | 90 | – |
| CC#Cc1cc(F)c(C2=C(OC(=O)C(C)C)C3(CCC(COC)C3)NC2=O)c(OC)c1 (centres unmarked) [Example P-65] | 90 | 100 | 100 | 100 | 100 | 100 | 100 | 80 | 100 | 100 | 100 | 90 | 90 | – |
| CC#Cc1cc(Br)c(C2=C(OC(=O)OCC)C3(CCC(COCC)C3)NC2=O)c(OCC)c1 (centres unmarked) [Example P-95] | 100 | 100 | 100 | 100 | 100 | 100 | 100 | – | 90 | 80 | 100 | 100 | 80 | – |
| C#CCOCC1CCC2(C1)NC(=O)C(c1c(F)cc(C#CC)cc1OC)=C2OC(=O)OCC (centres unmarked) [Example P-104] | 100 | 100 | 100 | 100 | 100 | – | 100 | – | – | 90 | 100 | 100 | 90 | 100 |
